Measured values: US8404679B2, “Pyrrolidine derivatives as NK2 receptor antagonists” (Hoffmann-La Roche Inc., priority 2008, dated 2013)

biological target: T1, human NK2 receptor (Homo sapiens, UniProt P21452); experiment: [3H]SR48968 competition binding assay; details: [3H]SR48968 displacement, membranes of CHO cells stably expressing recombinant human NK2 receptor; Ki from IC50 by Cheng-Prussoff
T1 construct: purchased Perkin Elmer biosignal Inc. 6110510
T1 sequence (P21452 1-398): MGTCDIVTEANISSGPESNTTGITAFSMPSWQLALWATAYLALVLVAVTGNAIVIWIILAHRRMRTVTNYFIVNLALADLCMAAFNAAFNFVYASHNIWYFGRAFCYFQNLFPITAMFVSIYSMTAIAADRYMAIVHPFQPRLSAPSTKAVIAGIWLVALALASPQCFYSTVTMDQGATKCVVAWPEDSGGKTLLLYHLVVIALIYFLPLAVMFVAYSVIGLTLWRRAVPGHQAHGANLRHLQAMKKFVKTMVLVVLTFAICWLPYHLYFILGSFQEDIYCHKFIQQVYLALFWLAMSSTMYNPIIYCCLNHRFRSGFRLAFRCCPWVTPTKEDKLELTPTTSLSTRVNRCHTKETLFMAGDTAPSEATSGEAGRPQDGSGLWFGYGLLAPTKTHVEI
Method in brief: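 Membranes from CHO cells stably expressing recombinant human NK2 were incubated 75 min at RT with [3H]SR48968 at its KD and 10 compound concentrations (0.0003–10 μM) in Tris-HCl pH 7.4, MnCl2, chymostatin, BSA. Filter-bound radioactivity was counted; Hill-fitted IC50 converted to Ki via Cheng-Prusoff.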

Structure (SMILES)	Ki [nM]
COc1ccc(C(=O)N(C)[C@@H]2CN(C(=O)c3ccc(C#N)cc3)C[C@H]2c2ccc(Cl)c(Cl)c2)cc1C(C)(C)C (racemic) [Example 74, rac-3-tert-Butyl-N-[(3S,4R)-1-(4-cyano-benzoyl)-4-(3,4-dichloro-phenyl)-pyrrolidin-3-yl]-4-methoxy-N-methyl-benzamide]	1.3
COc1ncc(C(=O)N(C)[C@@H]2CN(C(=O)c3ccc(C#N)cc3)C[C@H]2c2ccc(Cl)c(Cl)c2)cn1 (racemic) [Example 76, rac-2-Methoxy-pyrimidine-5-carboxylic acid [(3S,4R)-1-(4-cyano-benzoyl)-4-(3,4-dichloro-phenyl)-pyrrolidin-3-yl]-methyl-amide]	96
CN(C(=O)c1ccc(C#N)nc1)[C@@H]1CN(C(=O)c2ccc(C#N)cc2)C[C@H]1c1ccc(Cl)c(Cl)c1 (racemic) [Example 80, rac-6-Cyano-N-[(3S,4R)-1-(4-cyano-benzoyl)-4-(3,4-dichloro-phenyl)-pyrrolidin-3-yl]-N-methyl-nicotinamide]	40
CN(C(=O)c1ccc(C(F)(F)F)nc1)[C@@H]1CN(C(=O)c2ccc(C#N)cc2)C[C@H]1c1ccc(Cl)c(Cl)c1 (racemic) [Example 81, rac-N-[(3S,4R)-1-(4-Cyano-benzoyl)-4-(3,4-dichloro-phenyl)-pyrrolidin-3-yl]-N-methyl-6-trifluoromethyl-nicotinamide]	5.8
CN(C(=O)c1ccc(F)nc1)[C@@H]1CN(C(=O)c2ccc(C#N)cc2)C[C@H]1c1ccc(Cl)c(Cl)c1 (racemic) [Example 85, rac-N-[(3S,4R)-1-(4-Cyano-benzoyl)-4-(3,4-dichloro-phenyl)-pyrrolidin-3-yl]-6-fluoro-N-methyl-nicotinamide]	82.1
COc1ccc(C(=O)N(C)[C@@H]2CN(C(=O)c3ccc(C#N)cc3)C[C@H]2c2ccc(Cl)c(Cl)c2)cn1 (racemic) [Example 86, rac-N-[(3S,4R)-1-(4-Cyano-benzoyl)-4-(3,4-dichloro-phenyl)-pyrrolidin-3-yl]-6-methoxy-N-methyl-nicotinamide]	17.8
COc1ccc(C(=O)N(C)[C@H]2CN(C(=O)C3CCN(C(=O)C4(C)CC4)CC3)C[C@@H]2c2ccc(Cl)cc2)cc1C(F)(F)F (racemic) [Example 87, N-{(3RS,4SR)-4-(4-Chloro-phenyl)-1-[1-(1-methyl-cyclopropanecarbonyl)-piperidine-4-carbonyl]-pyrrolidin-3-yl}-4-methoxy-N-methyl-3-trifluoromethyl-benzamide]	0.8
COc1ccc(C(=O)N(C)[C@H]2CN(C(=O)c3ccc(C#N)cc3)C[C@@H]2c2ccc(Cl)cc2)cc1C(F)(F)F (racemic) [Example 92, N-[(3RS,4SR)-4-(4-Chloro-phenyl)-1-(4-cyano-benzoyl)-pyrrolidin-3-yl]-4-methoxy-N-methyl-3-trifluoromethyl-benzamide]	13.9
CN(C(=O)c1ccc(F)c(OC(F)(F)F)c1)[C@H]1CN(C(=O)C2CCN(C(=O)C3(C)CC3)CC2)C[C@@H]1c1ccc(Cl)c(Cl)c1 (racemic) [Example 98, N-{(3RS,4SR)-4-(3,4-Dichloro-phenyl)-1-[1-(1-methyl-cyclopropanecarbonyl)-piperidine-4-carbonyl]-pyrrolidin-3-yl}-4-fluoro-N-methyl-3-trifluoromethoxy-benzamide]	0.9
CN(C(=O)Cc1ccc(F)cc1)[C@H]1CN(C(=O)C2CCN(C(=O)C3(C)CC3)CC2)C[C@@H]1c1ccc(Cl)c(Cl)c1 (racemic) [Example 101, N-{(3RS,4SR)-4-(3,4-Dichloro-phenyl)-1-[1-(1-methyl-cyclopropanecarbonyl)-piperidine-4-carbonyl]-pyrrolidin-3-yl}-2-(4-fluoro-phenyl)-N-methyl-acetamide]	16.2

Further lines, results first:

Ki [nM]	Structure (SMILES)
12.4	COc1ccc(C(=O)N(C)[C@@H]2CN(C(=O)c3ccc(C#N)cc3)C[C@H]2c2ccc(Cl)c(Cl)c2)cc1F (racemic) [Example 73, rac-N-[(3S,4R)-1-(4-Cyano-benzoyl)-4-(3,4-dichloro-phenyl)-pyrrolidin-3-yl]-3-fluoro-4-methoxy-N-methyl-benzamide]
23	CN(C(=O)c1ccc(OCC2CC2)cc1)[C@@H]1CN(C(=O)c2ccc(C#N)cc2)C[C@H]1c1ccc(Cl)c(Cl)c1 (racemic) [Example 75, rac-N-[(3S,4R)-1-(4-Cyano-benzoyl)-4-(3,4-dichloro-phenyl)-pyrrolidin-3-yl]-4-cyclopropylmethoxy-N-methyl-benzamide]
28.8	Cc1ccc(C(=O)N(C)[C@@H]2CN(C(=O)c3ccc(C#N)cc3)C[C@H]2c2ccc(Cl)c(Cl)c2)cn1 (racemic) [Example 77, rac-N-[(3S,4R)-1-(4-Cyano-benzoyl)-4-(3,4-dichloro-phenyl)-pyrrolidin-3-yl]-6,N-dimethyl-nicotinamide]
7.8	CN(C(=O)c1ccc(Cl)nc1)[C@@H]1CN(C(=O)c2ccc(C#N)cc2)C[C@H]1c1ccc(Cl)c(Cl)c1 (racemic) [Example 78, rac-6-Chloro-N-[(3S,4R)-1-(4-cyano-benzoyl)-4-(3,4-dichloro-phenyl)-pyrrolidin-3-yl]-N-methyl-nicotinamide]
11.7	CN(C(=O)c1ccc(OCC(F)(F)F)nc1)[C@@H]1CN(C(=O)c2ccc(C#N)cc2)C[C@H]1c1ccc(Cl)c(Cl)c1 (racemic) [Example 82, rac-N-[(3S,4R)-1-(4-Cyano-benzoyl)-4-(3,4-dichloro-phenyl)-pyrrolidin-3-yl]-N-methyl-6-(2,2,2-trifluoro-ethoxy)-nicotinamide]
97.1	Cc1cncc(C(=O)N(C)[C@@H]2CN(C(=O)c3ccc(C#N)cc3)C[C@H]2c2ccc(Cl)c(Cl)c2)c1 (racemic) [Example 83, rac-N-[(3S,4R)-1-(4-Cyano-benzoyl)-4-(3,4-dichloro-phenyl)-pyrrolidin-3-yl]-5,N-dimethyl-nicotinamide]
17.8	COc1ccc(C(=O)N(C)[C@H]2CN(C(=O)c3ccc(F)cc3)C[C@@H]2c2ccc(Cl)cc2)cc1C(F)(F)F (racemic) [Example 88, N-[(3RS,4SR)-4-(4-Chloro-phenyl)-1-(4-fluoro-benzoyl)-pyrrolidin-3-yl]-4-methoxy-N-methyl-3-trifluoromethyl-benzamide]
23.3	COc1ccc(C(=O)N(C)[C@H]2CN(C(=O)c3ccc(F)cc3C)C[C@@H]2c2ccc(Cl)cc2)cc1C(F)(F)F (racemic) [Example 89, N-[(3RS,4SR)-4-(4-Chloro-phenyl)-1-(4-fluoro-2-methyl-benzoyl)-pyrrolidin-3-yl]-4-methoxy-N-methyl-3-trifluoromethyl-benzamide]
11.7	COc1ccc(C(=O)N(C)[C@H]2CN(C(=O)c3ccc(C#N)nc3)C[C@@H]2c2ccc(Cl)cc2)cc1C(F)(F)F (racemic) [Example 90, N-[(3RS,4SR)-4-(4-Chloro-phenyl)-1-(6-cyano-pyridine-3-carbonyl)-pyrrolidin-3-yl]-4-methoxy-N-methyl-3-trifluoromethyl-benzamide]
2.2	COc1ccc(C(=O)N(C)[C@H]2CN(C(=O)C3CCN(C(=O)OC(C)(C)C)CC3)C[C@@H]2c2ccc(Cl)cc2)cc1C(F)(F)F (racemic) [Example 95, 4-{(3SR,4RS)-3-(4-Chloro-phenyl)-4-[(4-methoxy-3-trifluoromethyl-benzoyl)-methyl-amino]-pyrrolidine-1-carbonyl}-piperidine-1-carboxylic acid tert-butyl ester]
0.8	COc1ccc(C(=O)N(C)[C@H]2CN(C(=O)C3CCN(C(=O)C4(C)CC4)CC3)C[C@@H]2c2ccc(Cl)c(Cl)c2)cc1C(F)(F)F (racemic) [Example 96, N-{(3RS,4SR)-4-(3,4-Dichloro-phenyl)-1-[1-(1-methyl-cyclopropanecarbonyl)-piperidine-4-carbonyl]-pyrrolidin-3-yl}-4-methoxy-N-methyl-3-trifluoromethyl-benzamide]
0.7	CN(C(=O)c1ccc(Cl)c(C(F)(F)F)c1)[C@H]1CN(C(=O)C2CCN(C(=O)C3(C)CC3)CC2)C[C@@H]1c1ccc(Cl)c(Cl)c1 (racemic) [Example 97, 4-Chloro-N-{(3RS,4SR)-4-(3,4-dichloro-phenyl)-1-[1-(1-methyl-cyclopropanecarbonyl)-piperidine-4-carbonyl]-pyrrolidin-3-yl}-N-methyl-3-trifluoromethyl-benzamide]
0.9	COc1cc(C(=O)N(C)[C@H]2CN(C(=O)C3CCN(C(=O)C4(C)CC4)CC3)C[C@@H]2c2ccc(Cl)c(Cl)c2)ccc1Cl (racemic) [Example 99, 4-Chloro-N-{(3RS,4SR)-4-(3,4-dichloro-phenyl)-1-[1-(1-methyl-cyclopropanecarbonyl)-piperidine-4-carbonyl]-pyrrolidin-3-yl}-3-methoxy-N-methyl-benzamide]
2.3	CN(C(=O)c1ccc(F)cc1)[C@H]1CN(C(=O)C2CCN(C(=O)C3(C)CC3)CC2)C[C@@H]1c1ccc(Cl)c(Cl)c1 (racemic) [Example 100, N-{(3RS,4SR)-4-(3,4-Dichloro-phenyl)-1-[1-(1-methyl-cyclopropanecarbonyl)-piperidine-4-carbonyl]-pyrrolidin-3-yl}-4-fluoro-N-methyl-benzamide]
2.4	CN(C(=O)CCc1ccc(F)cc1)[C@H]1CN(C(=O)C2CCN(C(=O)C3(C)CC3)CC2)C[C@@H]1c1ccc(Cl)c(Cl)c1 (racemic) [Example 102, N-{(3RS,4SR)-4-(3,4-Dichloro-phenyl)-1-[1-(1-methyl-cyclopropanecarbonyl)-piperidine-4-carbonyl]-pyrrolidin-3-yl}-3-(4-fluoro-phenyl)-N-methyl-propionamide]
